The results in this text go back to article PMC6437697 (Journal of Medicinal Chemistry, 2019).

What all share (assay): KINOMEscan
Common to all, as to assay type: binding
What all share (conditions): read-out: % control activity remaining

The target of experiment [1] is T1, ABL1(E255K)-phosphorylated (Homo sapiens, UniProt P00519, E255K).
T1 construct: purchased Eurofins DiscoverX KINOMEscan

Experiment [2] has as its target T2, ABL1(Q252H)-nonphosphorylated (Homo sapiens, UniProt P00519, Q252H).
T2 construct: purchased Eurofins DiscoverX KINOMEscan

The next experiment concerns the target T3, CASK (Homo sapiens, UniProt O14936).
T3 construct: purchased Eurofins DiscoverX KINOMEscan
T3 sequence (O14936 1-926): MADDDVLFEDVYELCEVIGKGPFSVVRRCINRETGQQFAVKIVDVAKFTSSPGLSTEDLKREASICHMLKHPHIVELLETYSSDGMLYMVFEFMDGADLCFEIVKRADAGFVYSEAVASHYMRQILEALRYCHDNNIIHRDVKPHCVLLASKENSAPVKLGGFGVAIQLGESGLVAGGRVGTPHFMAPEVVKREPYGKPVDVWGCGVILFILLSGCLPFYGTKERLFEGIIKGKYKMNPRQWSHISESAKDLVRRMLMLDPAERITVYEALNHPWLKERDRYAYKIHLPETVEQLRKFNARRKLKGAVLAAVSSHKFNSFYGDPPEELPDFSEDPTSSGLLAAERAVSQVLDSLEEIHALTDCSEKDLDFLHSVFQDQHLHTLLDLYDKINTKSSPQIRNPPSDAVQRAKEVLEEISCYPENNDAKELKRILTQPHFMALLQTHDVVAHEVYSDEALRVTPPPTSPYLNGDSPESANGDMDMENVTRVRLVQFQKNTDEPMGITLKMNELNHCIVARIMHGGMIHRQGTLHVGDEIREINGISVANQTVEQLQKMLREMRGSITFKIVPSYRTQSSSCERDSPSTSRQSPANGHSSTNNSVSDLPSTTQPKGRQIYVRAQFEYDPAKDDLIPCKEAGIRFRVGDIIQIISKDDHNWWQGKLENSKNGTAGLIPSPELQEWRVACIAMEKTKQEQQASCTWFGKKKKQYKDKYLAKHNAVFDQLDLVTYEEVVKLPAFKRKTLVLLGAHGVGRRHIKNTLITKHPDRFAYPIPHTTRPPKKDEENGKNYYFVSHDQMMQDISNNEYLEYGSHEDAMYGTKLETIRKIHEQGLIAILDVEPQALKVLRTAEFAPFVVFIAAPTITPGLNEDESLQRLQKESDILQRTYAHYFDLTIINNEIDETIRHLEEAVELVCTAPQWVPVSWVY

The next experiment deals with T4, DYRK1A (Homo sapiens, UniProt Q13627).
T4 construct: purchased Eurofins DiscoverX KINOMEscan

A further experiment concerns the target T5, LKB1 (Homo sapiens, UniProt Q15831).
T5 construct: purchased Eurofins DiscoverX KINOMEscan
T5 sequence (Q15831 1-433): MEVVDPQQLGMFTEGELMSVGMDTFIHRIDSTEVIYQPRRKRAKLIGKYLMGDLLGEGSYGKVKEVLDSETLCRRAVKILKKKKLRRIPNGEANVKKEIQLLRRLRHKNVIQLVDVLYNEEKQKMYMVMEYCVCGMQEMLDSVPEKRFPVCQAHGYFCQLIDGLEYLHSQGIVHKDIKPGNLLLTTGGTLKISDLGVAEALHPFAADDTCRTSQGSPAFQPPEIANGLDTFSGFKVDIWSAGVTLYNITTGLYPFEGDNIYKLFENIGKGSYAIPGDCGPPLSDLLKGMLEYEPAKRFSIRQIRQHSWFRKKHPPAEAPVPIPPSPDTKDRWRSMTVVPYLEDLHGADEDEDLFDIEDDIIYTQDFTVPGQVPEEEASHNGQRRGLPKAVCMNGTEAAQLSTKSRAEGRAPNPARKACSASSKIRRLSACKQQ

Another experiment concerns the target T6, MAK (Homo sapiens, UniProt P20794).
T6 construct: purchased Eurofins DiscoverX KINOMEscan
T6 sequence (P20794 1-623): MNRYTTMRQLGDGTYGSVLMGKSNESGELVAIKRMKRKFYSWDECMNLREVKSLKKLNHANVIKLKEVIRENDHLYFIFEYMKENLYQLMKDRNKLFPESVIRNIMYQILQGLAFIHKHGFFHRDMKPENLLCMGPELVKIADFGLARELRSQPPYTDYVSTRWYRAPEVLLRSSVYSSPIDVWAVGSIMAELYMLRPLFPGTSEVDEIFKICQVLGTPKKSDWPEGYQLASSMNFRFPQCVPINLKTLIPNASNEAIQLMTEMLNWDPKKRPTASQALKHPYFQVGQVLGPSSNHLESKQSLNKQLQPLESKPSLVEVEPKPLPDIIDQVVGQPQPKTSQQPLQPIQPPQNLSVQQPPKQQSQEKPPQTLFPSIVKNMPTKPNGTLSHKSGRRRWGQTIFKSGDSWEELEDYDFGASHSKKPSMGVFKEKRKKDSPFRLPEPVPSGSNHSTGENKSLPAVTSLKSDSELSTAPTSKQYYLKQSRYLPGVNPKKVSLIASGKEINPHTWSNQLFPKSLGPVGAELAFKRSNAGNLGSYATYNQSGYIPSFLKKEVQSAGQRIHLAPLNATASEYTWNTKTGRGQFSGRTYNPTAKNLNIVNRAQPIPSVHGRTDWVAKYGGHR

For the next experiment, the target named is T7, MAP3K4 (Homo sapiens, UniProt Q9Y6R4).
T7 construct: purchased Eurofins DiscoverX KINOMEscan
T7 sequence (Q9Y6R4 whole entry): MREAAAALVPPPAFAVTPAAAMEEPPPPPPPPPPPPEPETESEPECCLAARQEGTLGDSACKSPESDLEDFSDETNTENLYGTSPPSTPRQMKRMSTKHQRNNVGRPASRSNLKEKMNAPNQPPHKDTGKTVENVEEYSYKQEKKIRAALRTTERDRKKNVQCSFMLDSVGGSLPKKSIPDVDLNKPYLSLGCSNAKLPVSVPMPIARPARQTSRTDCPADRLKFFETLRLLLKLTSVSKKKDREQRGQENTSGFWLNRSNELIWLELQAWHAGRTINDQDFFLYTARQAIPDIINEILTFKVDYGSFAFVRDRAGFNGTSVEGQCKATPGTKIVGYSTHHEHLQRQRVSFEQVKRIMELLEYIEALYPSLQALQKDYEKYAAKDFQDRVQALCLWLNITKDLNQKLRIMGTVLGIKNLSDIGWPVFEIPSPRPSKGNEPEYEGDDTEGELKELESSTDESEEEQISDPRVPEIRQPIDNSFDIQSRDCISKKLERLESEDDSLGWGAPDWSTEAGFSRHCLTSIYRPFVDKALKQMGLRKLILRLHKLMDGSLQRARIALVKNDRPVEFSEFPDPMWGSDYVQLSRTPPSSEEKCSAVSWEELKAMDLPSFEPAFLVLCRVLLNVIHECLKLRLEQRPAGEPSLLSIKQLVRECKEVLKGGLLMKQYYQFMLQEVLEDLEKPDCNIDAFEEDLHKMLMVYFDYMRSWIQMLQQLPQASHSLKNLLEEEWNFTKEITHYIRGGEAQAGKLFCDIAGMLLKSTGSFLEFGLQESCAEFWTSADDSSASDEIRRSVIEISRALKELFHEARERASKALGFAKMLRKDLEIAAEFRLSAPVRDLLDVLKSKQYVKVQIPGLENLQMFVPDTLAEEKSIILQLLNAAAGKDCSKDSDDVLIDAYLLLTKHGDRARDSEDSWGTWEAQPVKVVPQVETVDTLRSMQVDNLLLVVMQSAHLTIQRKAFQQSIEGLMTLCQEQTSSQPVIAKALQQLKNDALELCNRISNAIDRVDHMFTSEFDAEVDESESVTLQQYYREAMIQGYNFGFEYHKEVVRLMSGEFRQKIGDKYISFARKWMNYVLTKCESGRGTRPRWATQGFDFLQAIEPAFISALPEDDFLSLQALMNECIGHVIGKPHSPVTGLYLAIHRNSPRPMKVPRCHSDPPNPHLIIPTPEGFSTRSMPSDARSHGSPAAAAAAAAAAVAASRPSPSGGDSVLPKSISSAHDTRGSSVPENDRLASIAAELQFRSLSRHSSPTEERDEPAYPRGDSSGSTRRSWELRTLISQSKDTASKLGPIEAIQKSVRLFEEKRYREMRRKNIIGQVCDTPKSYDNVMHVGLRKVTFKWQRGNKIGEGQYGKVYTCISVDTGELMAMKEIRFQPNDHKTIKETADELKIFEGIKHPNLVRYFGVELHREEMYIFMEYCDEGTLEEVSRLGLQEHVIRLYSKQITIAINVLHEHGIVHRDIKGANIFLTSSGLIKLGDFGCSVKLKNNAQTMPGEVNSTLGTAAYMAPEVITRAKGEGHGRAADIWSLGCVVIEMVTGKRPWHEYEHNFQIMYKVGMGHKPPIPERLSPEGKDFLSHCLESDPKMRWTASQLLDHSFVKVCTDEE

The target of the next experiment is T8, MAP4K5 (Homo sapiens, UniProt Q9Y4K4).
T8 construct: purchased Eurofins DiscoverX KINOMEscan

Another experiment addresses T9, MYLK (Homo sapiens, UniProt Q15746).
T9 construct: purchased Eurofins DiscoverX KINOMEscan

A further experiment addresses T10, TIE1 (Homo sapiens, UniProt P35590).
T10 construct: purchased Eurofins DiscoverX KINOMEscan

For another experiment, the target named is T11, WNK1 (Homo sapiens, UniProt Q9H4A3).
T11 construct: purchased Eurofins DiscoverX KINOMEscan
T11 sequence (Q9H4A3 whole entry): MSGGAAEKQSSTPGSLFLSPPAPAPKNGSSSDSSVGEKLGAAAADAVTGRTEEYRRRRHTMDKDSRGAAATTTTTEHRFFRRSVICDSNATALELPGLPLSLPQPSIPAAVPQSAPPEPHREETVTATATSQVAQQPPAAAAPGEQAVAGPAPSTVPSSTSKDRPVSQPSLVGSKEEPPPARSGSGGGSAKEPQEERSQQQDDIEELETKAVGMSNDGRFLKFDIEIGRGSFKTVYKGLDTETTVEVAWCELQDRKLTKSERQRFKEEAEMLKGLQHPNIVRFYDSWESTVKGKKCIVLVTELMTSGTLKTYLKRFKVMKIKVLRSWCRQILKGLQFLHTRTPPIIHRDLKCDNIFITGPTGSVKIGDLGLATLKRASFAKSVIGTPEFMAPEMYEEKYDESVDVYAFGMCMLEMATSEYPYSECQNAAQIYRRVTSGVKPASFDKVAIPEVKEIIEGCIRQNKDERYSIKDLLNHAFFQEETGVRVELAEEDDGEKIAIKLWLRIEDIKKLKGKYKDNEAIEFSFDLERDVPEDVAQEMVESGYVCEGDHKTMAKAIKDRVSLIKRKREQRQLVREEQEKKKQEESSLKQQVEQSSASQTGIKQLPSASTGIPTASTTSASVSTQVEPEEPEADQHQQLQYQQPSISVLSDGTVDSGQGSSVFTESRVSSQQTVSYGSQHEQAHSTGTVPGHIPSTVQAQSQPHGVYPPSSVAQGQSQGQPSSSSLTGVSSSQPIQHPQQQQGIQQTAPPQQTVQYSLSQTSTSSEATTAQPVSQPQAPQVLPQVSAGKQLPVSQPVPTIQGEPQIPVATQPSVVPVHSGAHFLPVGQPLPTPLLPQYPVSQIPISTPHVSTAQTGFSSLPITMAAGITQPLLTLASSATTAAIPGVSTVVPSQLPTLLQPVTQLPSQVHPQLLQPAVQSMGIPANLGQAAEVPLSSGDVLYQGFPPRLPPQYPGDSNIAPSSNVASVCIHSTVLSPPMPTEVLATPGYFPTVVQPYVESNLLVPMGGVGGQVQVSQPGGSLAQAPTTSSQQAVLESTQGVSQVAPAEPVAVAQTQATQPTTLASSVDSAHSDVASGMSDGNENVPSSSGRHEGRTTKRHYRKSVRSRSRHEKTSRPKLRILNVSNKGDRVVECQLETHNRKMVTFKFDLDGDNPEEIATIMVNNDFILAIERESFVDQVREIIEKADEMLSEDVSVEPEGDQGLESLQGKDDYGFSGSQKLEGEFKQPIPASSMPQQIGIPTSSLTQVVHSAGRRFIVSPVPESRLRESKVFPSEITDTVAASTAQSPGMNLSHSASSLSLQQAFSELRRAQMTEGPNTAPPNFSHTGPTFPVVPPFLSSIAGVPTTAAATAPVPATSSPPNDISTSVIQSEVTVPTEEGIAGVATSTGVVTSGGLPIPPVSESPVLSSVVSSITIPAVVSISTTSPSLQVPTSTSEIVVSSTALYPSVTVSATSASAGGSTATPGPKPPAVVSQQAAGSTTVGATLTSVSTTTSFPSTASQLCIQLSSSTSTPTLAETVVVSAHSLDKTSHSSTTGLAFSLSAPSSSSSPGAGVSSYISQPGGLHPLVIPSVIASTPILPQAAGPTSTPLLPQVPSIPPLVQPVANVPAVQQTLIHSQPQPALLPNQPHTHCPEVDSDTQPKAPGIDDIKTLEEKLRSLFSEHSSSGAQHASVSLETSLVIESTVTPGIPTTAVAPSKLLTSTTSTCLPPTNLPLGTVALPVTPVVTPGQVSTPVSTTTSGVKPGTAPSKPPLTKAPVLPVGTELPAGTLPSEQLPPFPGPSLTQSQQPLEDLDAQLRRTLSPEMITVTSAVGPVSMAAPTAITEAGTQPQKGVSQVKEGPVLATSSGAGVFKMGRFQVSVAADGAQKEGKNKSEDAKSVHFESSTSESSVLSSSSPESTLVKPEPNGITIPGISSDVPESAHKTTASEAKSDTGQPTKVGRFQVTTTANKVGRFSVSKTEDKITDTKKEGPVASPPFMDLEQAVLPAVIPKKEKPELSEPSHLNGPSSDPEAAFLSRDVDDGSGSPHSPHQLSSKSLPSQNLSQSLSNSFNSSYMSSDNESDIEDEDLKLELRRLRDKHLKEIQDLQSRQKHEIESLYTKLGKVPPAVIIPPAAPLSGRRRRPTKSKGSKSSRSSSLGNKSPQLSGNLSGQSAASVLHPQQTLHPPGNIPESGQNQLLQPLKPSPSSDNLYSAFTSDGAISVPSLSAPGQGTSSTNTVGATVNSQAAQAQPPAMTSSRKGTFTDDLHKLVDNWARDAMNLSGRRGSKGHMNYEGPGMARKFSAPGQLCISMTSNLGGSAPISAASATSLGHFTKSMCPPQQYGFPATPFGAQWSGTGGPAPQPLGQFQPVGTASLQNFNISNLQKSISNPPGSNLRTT

T10 sequence (P35590 22-1138): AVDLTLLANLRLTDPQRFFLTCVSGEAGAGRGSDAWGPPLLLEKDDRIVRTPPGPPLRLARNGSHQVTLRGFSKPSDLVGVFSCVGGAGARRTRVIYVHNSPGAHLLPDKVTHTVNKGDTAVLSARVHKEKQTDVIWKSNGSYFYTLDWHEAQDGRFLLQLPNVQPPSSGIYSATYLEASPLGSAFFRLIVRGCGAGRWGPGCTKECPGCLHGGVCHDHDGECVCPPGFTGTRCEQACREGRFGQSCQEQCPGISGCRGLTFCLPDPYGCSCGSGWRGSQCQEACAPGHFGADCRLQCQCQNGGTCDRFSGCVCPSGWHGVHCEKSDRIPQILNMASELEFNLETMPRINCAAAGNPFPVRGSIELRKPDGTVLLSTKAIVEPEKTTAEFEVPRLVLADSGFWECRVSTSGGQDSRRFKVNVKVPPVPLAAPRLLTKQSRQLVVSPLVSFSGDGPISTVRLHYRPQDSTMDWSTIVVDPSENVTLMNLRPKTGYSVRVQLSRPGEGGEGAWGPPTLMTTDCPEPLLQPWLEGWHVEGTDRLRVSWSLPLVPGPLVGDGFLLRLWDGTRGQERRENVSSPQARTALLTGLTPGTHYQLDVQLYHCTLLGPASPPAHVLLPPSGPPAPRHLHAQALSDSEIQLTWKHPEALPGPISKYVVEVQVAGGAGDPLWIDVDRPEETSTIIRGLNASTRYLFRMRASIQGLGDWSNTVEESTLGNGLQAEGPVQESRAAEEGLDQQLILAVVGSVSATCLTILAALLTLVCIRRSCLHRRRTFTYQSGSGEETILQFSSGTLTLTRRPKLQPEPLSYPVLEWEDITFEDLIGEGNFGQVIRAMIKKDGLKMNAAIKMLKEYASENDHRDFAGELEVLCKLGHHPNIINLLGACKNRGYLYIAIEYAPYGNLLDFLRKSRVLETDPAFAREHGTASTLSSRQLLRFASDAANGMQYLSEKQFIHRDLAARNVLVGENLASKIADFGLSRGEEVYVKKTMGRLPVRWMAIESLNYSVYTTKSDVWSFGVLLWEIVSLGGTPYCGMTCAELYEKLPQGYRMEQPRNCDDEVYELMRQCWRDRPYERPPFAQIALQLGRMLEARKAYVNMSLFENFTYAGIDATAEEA

`Clc1cc(NCC2CC2)c2ncc(-c3ccc4[nH]ncc4c3)n2n1` [compound 2, 6-Chloro-N-(cyclopropylmethyl)-3-(1H-indazol-5-yl)imidazo[1,2-b]pyridazin-8-amine]: the remaining binding at 1 µM was determined as 100% in [1]; 93% in experiment [2]; 87% at CASK; 5.1% on DYRK1A; 52% on LKB1; 82% at MAK. Also, the remaining binding at 1 µM was 74% on MAP3K4; 98% at MAP4K5; 79% on MYLK; 99% at TIE1; 89% on WNK1.
As to `O=C(CN1CCOCC1)N[C@H]1CC[C@H](Nc2cc(Cl)nn3c(-c4ccc5[nH]ncc5c4)cnc23)CC1` [compound 26], the remaining binding at 1 µM is 56% in [1]; 48% in experiment [2]; 59% on CASK; 0.35% on DYRK1A; 98% on LKB1; 61% at MAK. The remaining binding at 1 µM amounted to 86% at MAP3K4; 87% at MAP4K5; 42% at MYLK; 67% on TIE1; 100% on WNK1.
On to `CN1CCC(CNc2cc(Cl)nn3c(-c4cc5nc(Nc6ccccc6)[nH]c5cc4F)cnc23)CC1` [compound 31, 6-Chloro-3-(6-fluoro-2-(phenylamino)-1H-benzo[d]imidazol-5-yl)-N-((1-methylpiperidin-4-yl)methyl)imidazo[1,2-b]pyridazin-8-amine], for which the remaining binding at 1 µM in experiment [1] worked out at 86%; in [2] it was 64%; on CASK, 100%; on DYRK1A, 71%; on LKB1 it was 77%; on MAK, 69%. Also, the remaining binding at 1 µM on MAP3K4 came to 86%; on MAP4K5, 100%; on MYLK it was 81%; at TIE1, 84%; at WNK1 it was 76%.
